{"source": "patent US20260083674A1", "about": "“OXAZOLIDINONE LIPOSOME COMPOSITIONS” (priority 2021, published 2026)", "key": {"[1]": {"conditions": "male, Sprague-Dawley, rat, in vivo, po, 50 mg/kg", "protocol": "For plasma drug measurements, 0.5 ml blood was collected in lithium heparin tubes at 5 min, 15 min, 1 h, 3 h, 6 h, 24 h, 48 h, and 72 h. The samples were centrifuged and the resultant plasma was separated and transferred to duplicate clear polypropylene tubes, frozen immediately over dry ice, and stored at −80° C. until analysis. The plasma concentration in rats was determined by HPLC. Non-compartment PK analyses were performed using Phoenix WinNonlin (Version 7.0)."}, "M. tuberculosis Erdman": {"system": "M. tuberculosis Erdman", "conditions": "eight weeks, Balb/c and C3HeB/FeJ mice; cited from earlier work"}, "[2]": {"system": "mitochondrial protein synthesis vs H37Rv M. tuberculosis", "test": "MPS selectivity index (MPS IC50 / MIC H37Rv)"}, "[3]": {"system": "methicillin resistant Staphylococcus aureus (MRSA) ATCC BAA-1556", "conditions": "cited from earlier work"}, "M.tb H37Rv": {"system": "M.tb H37Rv", "test": "Broth microdilution MIC with Alamar blue endpoint (MABA), M.tb H37Rv", "assay_type": "cell-based", "conditions": "Mycobacterium tuberculosis, read-out: MIC (H37Rv)"}, "[4]": {"system": "methicillin resistant Staphylococcus aureus (MRSA) ATCC 43300", "test": "MIC against MRSA strain ATCC 43300", "conditions": "read-out: MRSA MIC, strain ATCC 43300"}, "[5]": {"system": "methicillin resistant Staphylococcus aureus (MRSA) 880 NR-49120", "test": "MIC against MRSA strain 880 NR-49120", "conditions": "read-out: MRSA MIC, strain 880 NR-49120"}, "[6]": {"system": "methicillin resistant Staphylococcus aureus (MRSA) ATCC BAA-1556", "test": "MIC against MRSA strain ATCC BAA-1556", "conditions": "ATCCBAA1556|MRSA"}, "[7]": {"system": "African green monkey kidney (Vero; ATCC #CCL81) cells", "test": "In vitro cytotoxicity (PrestoBlue cell viability), Vero cells", "conditions": "Chlorocebus sabaeus, 72 h, read-out: Cell viability IC50, VERO", "protocol": "(§1) Data is reported out as the full cell viability curve, as well as a calculation of the actual IC50 value for each compound.\n(§2) Adherent cells were grown to ˜80% confluency. […] The cell density was determined using a hemocytometer.\n(§3) These compounds were provided as sterile aqueous solutions of HCl salts with a concentration of 5 mg/ml. For making dilutions, each drug stock was warmed to room temperature, vortexed and was visually inspected for precipitation. If solid drug was present, the stock was heated on a 60° C. water bath and then allowed to cool to near room temperature. Based on the treatment concentrations, 20× working stocks were made by serial dilution.\n(§4) At the end of the compound incubation period, replace the media in each well with 100 μl of 1× PrestoBlue Cell Viability Reagent (ThermoFisher Cat #A13261). Incubate the plate at 37° C. in a humidified incubator with 5% CO2 30 min to 2 h. […] Read fluorescence with 560 nm excitation and 590 nm emission using SpectraMax M5 plate reader (Molecular Devices). Correct background by subtracting the RFU of the control containing only the culture medium (background control well) from all sample readings. Calculate the percentage of cytotoxicity using the formula below:\n(§5) The IC50 was determined using GraphPad Prism using the following formula:"}, "[8]": {"system": "human hepatocyte/liver (HepG2; ATCC #HB8065) cells", "test": "In vitro cytotoxicity (PrestoBlue cell viability), HepG2 cells", "conditions": "HepG2, 72 h, read-out: Cell viability IC50, HepG2", "protocol": "as §1, §2, §3, §4, §5"}, "[9]": {"system": "mitochondrial protein synthesis (COX-1/SDH-A) in H9C2 rat heart myoblast cells", "test": "Inhibition of mitochondrial protein synthesis (MitoBiogenesis in-cell ELISA, COX-1/SDH-A)", "conditions": "H9c2, 120 h, read-out: MPS IC50", "protocol": "Inhibition of mitochondrial protein synthesis was determined using a colorimetric MitoBiogenesis™ in-cell ELISA kit from AbCam (Catalog #ab11021), as per the manufacturer's instructions. […] The levels of two mitochondrial proteins were measured simultaneously, including the mitochondrial DNA-encoded subunit I of Complex IV (COX-1) and the nuclear DNA-encoded 70 kDa subunit of Complex II (SDH-A). The H9C2 rat BDIX heart myoblast cell line was used in these studies in a 384 well plate assay format. Cells were grown in DMEM media with 10% FBS and 1×Glutamine at 37° C. and 5% CO2. […] Ten concentrations of each compound, starting at a high concentration of 200 μM and including nine 3-fold dilutions and one replicate per condition, were added to the cells in 2.5 μl and incubated with the cells for five days at 37° C. and 5% CO2.\nCOX-I and SDH-A signals were plotted as a ratio of COX-1/SDH-A against concentration of each compound, and the IC50 were calculated for each of the 9 investigational compounds and two controls."}, "[10]": {"assay_type": "physicochemical", "method": "To the resulting cake or syrup, water was added typically to the final 10 mg/ml, and complete dissolution was observed. […] Aqueous solubility of the compounds of the present disclosure is illustrated by the following observations of obtaining visually clear solutions: […]"}, "[11]": {"test": "Liposome loading: encapsulated drug-to-lipid ratio and encapsulation efficiency", "assay_type": "physicochemical", "conditions": "for maximum drug load: HSPC/Chol 3:2, 0.5 mol % PEG-DSG (Example 14)", "method": "1. The lipid components (phospholipid (PhL), cholesterol, and optionally—a PEG-lipid derivative and/or a lipid fluorescent label were combined in an amount of 100% ethanol equal to one-tenth of a volume (V) calculated to obtain lipid suspension with about 60 mM phospholipid and stirred at the temperature of 65-68° C. until complete dissolution of the lipids.\n2. The ethanolic lipid solution was combined with volume V of the trapping agent solution (0.25-0.5 M ammonium sulfate or 1 N triethylammonium sucrose octasulfate) upon stirring at 65-68° C. until a uniform suspension was obtained.\n3. The lipid suspension was extruded at least three times through a stack of track-etched polycarbonate membranes, typically, two or four membranes with the nominal pore size of 100 nm and one with the nominal pore size 200 nm (Whatman Nuclepore, USA), using a thermobarrel extruder (Lipex, Canada) at 65-68° C., at the pressure of 400-450 psi. When two 100-nm membranes were used in a 100-ml Lipex extruder, the extrusion pressure was typically 260-300 psi. The resulting liposomes have Z-average particle size (diameter) Xz between about 80 and about 130 nm, and PDI less than 0.1.\n5. An aliquot of the extruded, filtered liposome suspension so made was chromatographed on a gravity-fed Sepharose CL-4B size exclusion column (eluent-Type 1 water), to purify the liposomes from extraliposomal trapping agent. The purified liposomes were collected near the void volume fraction of the column. For a scale-up studies, this step was performed using a tangential flow filtration (TFF) on a hollow fiber cartridge (Repligen Spectrum MicroKros PS or mPES membrane with MWCO of 500 KDa) effecting 8-10 volume exchanges (or until the conductivity of the liposome suspension dropped below 200 μS/cm) with Type 1 or USP “Water for injection” endotoxin-free water.\n6. The lipid concentration in a purified extruded liposome preparation was determined using HPLC with UV detection, by measuring the concentration of cholesterol and correcting for the known phospholipid/cholesterol molar ratio. Alternatively, a spectrophotometric blue phosphomolybdate method was used to directly quantify the phospholipid content.\n7. The drug was dissolved in Type 1 or endotoxin-free pure water in the form of a hydrochloric acid salt (e.g., AKG-3 and AKG-5 were used as monohydrochloride, AKG-28 and AKG-29 were used as dihydrochloride) at the concentration of 5-20 mg/ml of the drug. To the drug prepared in free base form (e.g., AKG-16, AKG-38), an equivalent amount of HCl was added. If necessary, pH of the solution was brought between pH 2.5-5.5, using 1 N NaOH, HCL, or tris(hydroxymethyl)aminomethane (Tris)-base solution, and the solution was filtered through a 0.2-micron PES filter under positive pressure. When necessary, the drug concentration in the stock solution so made was verified by HPLC with UV detection at 305 nm.\n8. Purified liposomes of step 5 and the drug stock solution were combined in the presence of an osmotic agent (typically dextrose) and water in the amounts necessary to provide a desired drug-to-phospholipid (DL) ratio, the drug concentration in the range 1.5-3.3 mg/ml, at the osmolality equal to the measured osmolality of the trapping agent solution of step 2. Optionally, a buffer at a desired pH (typically pH 4 to pH 7) was added. In some instances, the amount of added osmotic agent (e.g., dextrose at about 45 g/L) provided osmolality less that the measured osmolality of the trapping agent solution, and the loading was effected at 6-8 mg/ml of the drug.\n9. The drug-liposome mixture was incubated with constant agitation at 65-68° C. for about 15-20 min and quickly chilled on ice. After 5-10 min, the mixture was allowed to reach ambient temperature an adjusted to 0.1M NaCl by adding a calculated amount of 3 M NaCl stock solution.\n10. […] The liposome fractions were collected near the column void volume. […]"}, "M.tb Erdman": {"system": "M.tb Erdman", "test": "Broth microdilution MIC with Alamar blue endpoint (MABA), M.tb Erdman", "assay_type": "cell-based, Mycobacterium tuberculosis", "conditions": "Mycobacterium tuberculosis, ERDMAN; broth microdilution, MABA/OD600"}, "[12]": {"conditions": "read-out: MIC against the three MRSA strains"}, "[13]": {"conditions": "read-out: MRSA MIC, strain ATCC BAA-1556"}}, "note": "Like-named read-outs stand apart in the source and are kept apart here."}
{"compound": "CC(=O)NC[C@H]1CN(c2ccc(N3CCOCC3)c(F)c2)C(=O)O1", "note": "[Linezolid]", "values": [{"measurement": "AUC0-last/Dose", "setting": "[1]", "result": "5.64 [hr*μg/mL]/[mg/kg]"}, {"measurement": "log 10 CFU counts, linezolid monotherapy (Lanoix et al.)", "setting": "M. tuberculosis Erdman", "result": "4-6 log 10 CFU"}]}
{"compound": "Cn1nnc(-c2ccc(-c3ccc(N4C[C@H](CO)OC4=O)cc3F)cn2)n1", "note": "[Tedizolid, reference compound]", "values": [{"measurement": "SI-MPS MPS/H37", "setting": "[2]", "result": 0.57}, {"measurement": "MIC described in U.S. Pat. No. 7,816,379", "setting": "[3]", "result": 0.5, "unit": "mg/L"}]}
{"compound": "CN(C)CCCn1nnc(-c2ccc(-c3ccc(N4C[C@H](CN)OC4=O)cc3F)cn2)n1.Cl", "note": "(stereo in doubt) [AKG-30]", "values": [{"measurement": "MIC", "setting": "M.tb H37Rv", "result": 0.125, "unit": "mg/L"}, {"measurement": "SI-MPS MPS/H37", "setting": "[2]", "result": 2.02}, {"measurement": "MIC", "setting": "[4]", "result": "> 50", "unit": "mg/L"}, {"measurement": "MIC", "setting": "[5]", "result": "> 50", "unit": "mg/L"}, {"measurement": "MIC", "setting": "[6]; [12]", "result": "> 50", "unit": "mg/L"}, {"measurement": "MIC", "setting": "[6]; [13]", "result": "> 50", "unit": "mg/L"}, {"measurement": "IC50", "setting": "[7]", "result": 110, "unit": "mg/L"}, {"measurement": "IC50", "setting": "[8]", "result": 18.9, "unit": "mg/L"}, {"measurement": "IC50", "setting": "[9]", "result": 0.252, "unit": "mg/L"}]}
{"compound": "CC(=O)NC[C@H]1CN(c2ccc(-c3ccc(-c4nnn(CCN(C)C)n4)nc3)c(F)c2)C(=O)O1", "note": "[AKG-38]", "values": [{"measurement": "Concentration % (w/w) of free base, visually clear solution", "setting": "[10]", "result": "7.1 % (w/w)"}, {"measurement": "maximum drug load", "setting": "[11]; 0.5 M AS", "result": "818-842 g/mol PhL"}, {"measurement": "maximum drug load", "setting": "[11]; 1 N TEA-SOS", "result": 989, "unit": "g/mol PhL"}, {"measurement": "drug load", "setting": "[11]; 30 mol % cholesterol, 5 mol % PEG-DSG, 1 N TEA-SOS", "result": 462.4, "unit": "g/mol PhL"}, {"measurement": "IC50", "setting": "[7]", "result": "≥ 395", "unit": "mg/L"}, {"measurement": "IC50", "setting": "[8]", "result": 97, "unit": "mg/L"}, {"measurement": "IC50", "setting": "[9]", "result": 0.041, "unit": "mg/L"}]}
{"compound": "Cl.Cl.NCCn1nnc(-c2ccc(-c3ccc(N4C[C@H](CN)OC4=O)cc3F)cn2)n1", "note": "[AKG-29]", "values": [{"measurement": "MIC", "setting": "M.tb Erdman", "result": 0.25, "unit": "mg/L"}, {"measurement": "SI-MPS MPS/H37", "setting": "[2]", "result": 32.80}, {"measurement": "MIC", "setting": "[4]", "result": "> 50", "unit": "mg/L"}, {"measurement": "MIC", "setting": "[5]", "result": 50, "unit": "mg/L"}, {"measurement": "MIC", "setting": "[6]; [12]", "result": "> 50", "unit": "mg/L"}, {"measurement": "MIC", "setting": "[6]; [13]", "result": 50, "unit": "mg/L"}, {"measurement": "IC50", "setting": "[7]", "result": 110, "unit": "mg/L"}, {"measurement": "IC50", "setting": "[8]", "result": 74.4, "unit": "mg/L"}]}
